Test results: patent publication US20250281424A1 (New York Blood Center, Inc, priority 2020, published 2025)

Target: T1, human PF4 (Homo sapiens, UniProt P02776)
T1 construct: PF4 is a 70 amino acid, lysine-rich 7.8 kDa platelet-specific protein; made in house; host or cells: Escherichia coli BL21DE3 pLysS (pT7-7) and/or Drosophila S2 cells
T1 sequence (P02776 32-101): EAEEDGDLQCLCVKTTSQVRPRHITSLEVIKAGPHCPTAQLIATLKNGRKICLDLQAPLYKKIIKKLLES
Test: Inhibition of PF4 tetramer formation (BS3 cross-linking, SDS-PAGE)
Format: biochemical
Conditions: for inhibition at 5 µM: 5 μM inhibitor; for inhibition at 5 µM / inhibition at 10 µM / inhibition at 1 µM / inhibition at 3 µM: read-out: % inhibition of PF4 tetramer formation at single concentration of inhibitor; for inhibition at 10 µM: 10 μM inhibitor (column A); for IC50: read-out: IC50 of PF4 tetramer formation inhibition; for inhibition at 1 µM: 1 μM inhibitor; for inhibition at 3 µM: 3 μM inhibitor (column A)
Outline: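 Monomer, dimer, trimer and tetramer fractions were quantified by densitometry after reducing 12% SDS-PAGE of BS3-cross-linked (0.2 mM, 30 min, room temperature) PF4. Before cross-linking, 10 μg/ml E. coli-expressed human WT PF4 in PBS was exposed to compound for 15 min at 37° C or 60 min at room temperature; controls lacked compound.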

| Compound | inhibition at 5 µM [%] | inhibition at 10 µM [%] | IC50 [µM] | inhibition at 1 µM [%] | inhibition at 3 µM [%] |
| --- | --- | --- | --- | --- | --- |
| O=C(Cc1ccccc1)C1C(=O)c2ccc(S(=O)(=O)c3ccc4c(c3)C(=O)C(C(=O)Cc3ccccc3)C4=O)cc2C1=O (centres unmarked) [Example 137, 5-{[1,3-dioxo-2-(2-phenylacetyl)-2,3-dihydro-1H-inden-5-yl]sulfonyl}-2-(2-phenylacetyl)-2,3-dihydro-1H-indene-1,3-dione] | 80 | 85 | 6 |  |  |
| CC(C)(C)OC(=O)N1CC[C@H](C(=O)C2C(=O)c3ccc(C(=O)c4ccc5c(c4)C(=O)C(C(=O)[C@H]4CCN(C(=O)OC(C)(C)C)C4)C5=O)cc3C2=O)C1 (stereo partly drawn) [Example 373, tert-butyl (3S)-3-(5-{2-[(3S)-1-[(tert-butoxy)carbonyl]pyrrolidine-3-carbonyl]-1,3-dioxo-2,3-dihydro-1H-indene-5-carbonyl}-1,3-dioxo-2,3-dihydro-1H-indene-2-carbonyl)pyrrolidine-1-carboxylate] |  |  |  | 5 | 3 |
| COC(=O)CCCC(=O)C1C(=O)c2ccc(-c3ccc4c(c3)C(=O)C(C(=O)CCCC(=O)OC)C4=O)cc2C1=O (centres unmarked) [Example 226, methyl 5-[2′-(5-methoxy-5-oxopentanoyl)-1,1′,3,3′-tetraoxo-1H,1′H,2H,2′H,3H,3′H-[5,5′-biinden]-2-yl]-5-oxopentanoate] | 77 | 92 | 4 |  |  |
| O=C1c2ccc(S(=O)(=O)c3ccc4c(c3)C(=O)C(C(=O)[C@@H]3C[C@H]3C(=O)O)C4=O)cc2C(=O)C1C(=O)[C@@H]1C[C@H]1C(=O)O (stereo in doubt) [Example 223, (1R,2R)-2-[5-({2-[(1R,2R)-2-carboxycyclopropanecarbonyl]-1,3-dioxo-2,3-dihydro-1H-inden-5-yl}sulfonyl)-1,3-dioxo-2,3-dihydro-1H-indene-2-carbonyl]cyclopropane-1-carboxylic acid] | 97 | 100 | 1.4 |  |  |
| O=C(O)CCNC(=O)C1C(=O)c2ccc(Oc3ccc4c(c3)C(=O)C(C(=O)NCCC(=O)O)C4=O)cc2C1=O (centres unmarked) [Example 305, 3-{[5-({2-[(2-carboxyethyl)carbamoyl]-1,3-dioxo-2,3-dihydro-1H-inden-5-yl}oxy)-1,3-dioxo-2,3-dihydro-1H-inden-2-yl]formamido}propanoic acid] |  |  |  | 13 | 50 |
| C=C1C[C@@H](C(=O)C2C(=O)c3ccc(C(=O)c4ccc5c(c4)C(=O)C(C(=O)[C@@H]4CC(=C)CN4C(=O)OC(C)(C)C)C5=O)cc3C2=O)N(C(=O)OC(C)(C)C)C1 (stereo partly drawn) [Example 133, tert-butyl (2S)-2-(5-{2-[(2S)-1-[(tert-butoxy)carbonyl]-4-methylidenepyrrolidine-2-carbonyl]-1,3-dioxo-2,3-dihydro-1H-indene-5-carbonyl}-1,3-dioxo-2,3-dihydro-1H-indene-2-carbonyl)-4-methylidenepyrrolidine-1-carboxylate] | 66 | 88 | ~6 |  |  |
| CCCC(=O)C1C(=O)c2ccc(S(=O)(=O)c3ccc4c(c3)C(=O)C(C(=O)CCC)C4=O)cc2C1=O (centres unmarked) [Example 322, 2-butanoyl-5-[(2-butanoyl-1,3-dioxo-2,3-dihydro-1H-inden-5-yl)sulfonyl]-2,3-dihydro-1H-indene-1,3-dione] |  | 40 |  |  |  |
| CO[C@@H](C)C(=O)C1C(=O)c2ccc(C(=O)c3ccc4c(c3)C(=O)C(C(=O)[C@H](C)OC)C4=O)cc2C1=O (stereo partly drawn) [Example 236, 2-[(2S)-2-methoxypropanoyl]-5-{2-[(2S)-2-methoxypropanoyl]-1,3-dioxo-2,3-dihydro-1H-indene-5-carbonyl}-2,3-dihydro-1H-indene-1,3-dione] |  |  |  | 20 | 25 |
| COC(=O)c1ccccc1NC(=O)C1C(=O)c2ccc(S(=O)(=O)c3ccc4c(c3)C(=O)C(C(=O)Nc3ccccc3C(=O)OC)C4=O)cc2C1=O (centres unmarked) [Example 97, methyl 2-{5-[(2-{[2-(methoxycarbonyl)phenyl]carbamoyl}-1,3-dioxo-2,3-dihydro-1H-inden-5-yl)sulfonyl]-1,3-dioxo-2,3-dihydro-1H-indene-2-amido}benzoate] | 100 | 100 | 8.9 |  |  |
| CC(=O)C1C(=O)c2ccc(S(=O)(=O)c3ccc4c(c3)C(=O)C(C(C)=O)C4=O)cc2C1=O (centres unmarked) [Example 2, 5,5′-sulfonylbis(2-acetyl-1h-indene-1,3(2h)-dione)] |  |  | 18 |  |  |
| O=C(c1ccc2c(c1)C(=O)C(C(=O)[C@@H]1CCNC1)C2=O)c1ccc2c(c1)C(=O)C(C(=O)[C@H]1CCCN1)C2=O (stereo partly drawn) [Example 349, 5-{1,3-dioxo-2-[(3R)-pyrrolidine-3-carbonyl]-2,3-dihydro-1H-indene-5-carbonyl}-2-[(2R)-pyrrolidine-2-carbonyl]-2,3-dihydro-1H-indene-1,3-dione] |  |  |  | 2 | 27 |
| C[C@@H](C(=O)C1C(=O)c2ccc(C(=O)c3ccc4c(c3)C(=O)C(C(=O)[C@H](C)N(C)C(=O)OC(C)(C)C)C4=O)cc2C1=O)N(C)C(=O)OC(C)(C)C (stereo partly drawn) [Example 155, tert-butyl N-[(2S)-1-(5-{2-[(2S)-2-{[(tert-butoxy)carbonyl](methyl)amino}propanoyl]-1,3-dioxo-2,3-dihydro-1H-indene-5-carbonyl}-1,3-dioxo-2,3-dihydro-1H-inden-2-yl)-1-oxopropan-2-yl]-N-methylcarbamate] | 95 | 100 | 2.1 |  |  |
| CC(=O)OC[C@H]1O[C@@H](OC(C)=O)[C@H](NC(=O)C2C(=O)c3ccc(C(=O)c4ccc5c(c4)C(=O)C(C(=O)N[C@H]4[C@H](OC(C)=O)O[C@H](COC(C)=O)[C@@H](OC(C)=O)[C@@H]4OC(C)=O)C5=O)cc3C2=O)[C@@H](OC(C)=O)[C@@H]1OC(C)=O (stereo partly drawn) [Example 398, [(2R,3S,4R,5R,6S)-3,4,6-tris(acetyloxy)-5-[5-(1,3-dioxo-2-{[(2S,3R,4R,5S,6R)-2,4,5-tris(acetyloxy)-6-[(acetyloxy)methyl]oxan-3-yl]carbamoyl}-2,3-dihydro-1H-indene-5-carbonyl)-1,3-dioxo-2,3-dihydro-1H-indene-2-amido]oxan-2-yl]methyl acetate] |  |  |  | 6 | 23 |
| CSCCC(=O)C1C(=O)c2ccc(Oc3ccc4c(c3)C(=O)C(C(=O)CCSC)C4=O)cc2C1=O (centres unmarked) [Example 276, 2-[3-(methylsulfanyl)propanoyl]-5-({2-[3-(methylsulfanyl)propanoyl]-1,3-dioxo-2,3-dihydro-1H-inden-5-yl}oxy)-2,3-dihydro-1H-indene-1,3-dione] |  |  | 3 | 12 | 7 |
| COC(=O)c1ccc(NC(=O)C2C(=O)c3ccc(S(=O)(=O)c4ccc5c(c4)C(=O)C(C(=O)Nc4ccc(C(=O)OC)cc4)C5=O)cc3C2=O)cc1 (centres unmarked) [Example 98, methyl 4-{5-[(2-{[4-(methoxycarbonyl)phenyl]carbamoyl}-1,3-dioxo-2,3-dihydro-1H-inden-5-yl)sulfonyl]-1,3-dioxo-2,3-dihydro-1H-indene-2-amido}benzoate] | 100 | 100 |  |  |  |
| COc1cccc(NC(=O)C2C(=O)c3ccc(C(=O)c4ccc5c(c4)C(=O)C(C(=O)Nc4cccc(OC)c4)C5=O)cc3C2=O)c1 (centres unmarked) [Example 23, 5,5′-carbonylbis(1,3-dioxo-indan-2-carboxylic acid (3-methoxyphenyl)-amide)] | 84 | 92 | 1.75 |  |  |
